Here are results for six compounds from paper PMC8692984 (Frontiers in Pharmacology, 2021).

Several values for one entry are separate records, joined by “and”; a condition that tells them apart may be missing. Equal entries are not always repeated. Bridge positions count the residues as written; N and C are the ends. Peptide text beside a SMILES is read from it.

Assay [1] addresses T1, α7 nAChRs (Homo sapiens, UniProt P36544).
A further assay concerns the target Ls-AChBP (Lymnaea stagnalis, UniProt P58154). The assay can be described thus: biochemical. As to conditions: SEM.
In assay [2] the target is T1, α7 nAChRs. The source holds these as a separate data set.

T1 sequence (P36544 23-502): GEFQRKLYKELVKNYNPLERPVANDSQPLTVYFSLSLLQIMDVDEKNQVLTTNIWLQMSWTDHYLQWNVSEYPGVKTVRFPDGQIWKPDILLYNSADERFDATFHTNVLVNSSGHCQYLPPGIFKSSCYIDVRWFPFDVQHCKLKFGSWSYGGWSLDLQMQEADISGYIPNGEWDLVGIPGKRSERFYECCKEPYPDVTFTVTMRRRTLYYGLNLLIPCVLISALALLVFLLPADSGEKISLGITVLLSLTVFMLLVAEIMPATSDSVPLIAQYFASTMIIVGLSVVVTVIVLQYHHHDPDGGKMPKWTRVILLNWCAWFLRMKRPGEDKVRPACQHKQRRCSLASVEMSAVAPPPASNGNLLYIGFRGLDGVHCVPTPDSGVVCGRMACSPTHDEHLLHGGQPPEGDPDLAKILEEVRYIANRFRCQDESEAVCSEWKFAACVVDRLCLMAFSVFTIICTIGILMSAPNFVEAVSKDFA
Sequence of Ls-AChBP (P58154 20-229 limits assumed): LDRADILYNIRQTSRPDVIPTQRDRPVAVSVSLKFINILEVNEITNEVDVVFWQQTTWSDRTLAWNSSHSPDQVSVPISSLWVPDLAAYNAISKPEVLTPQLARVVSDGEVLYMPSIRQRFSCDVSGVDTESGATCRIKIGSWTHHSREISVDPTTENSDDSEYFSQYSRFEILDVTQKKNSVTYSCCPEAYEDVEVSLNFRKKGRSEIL

`CC[C@H](C)[C@@H]1NC(=O)[C@H](Cc2c[nH]cn2)NC(=O)[C@@H]2CCCN2C(=O)[C@H](CC(N)=O)NC(=O)[C@H](CC(N)=O)NC(=O)[C@H](C(C)C)NC(=O)[C@H](Cc2c[nH]cn2)NC(=O)[C@@H]2CSSC[C@H](NC(=O)CN)C(=O)N[C@@H](CSSC[C@@H](C(=O)NCC(N)=O)NC1=O)C(=O)N[C@@H](CO)C(=O)N[C@@H](Cc1c[nH]cn1)C(=O)N1CCC[C@H]1C(=O)N[C@@H](C)C(=O)N2` [[N9H]OmIA] (H-GCCSHPACHVNNPHICG-NH2; disulfide 2-8, 3-16): the “extent of inhibition of α7 nAChR responses to choline” value at α7 nAChRs [1] is reported as roughly 50%. Also, half-maximal inhibition at Ls-AChBP (IC50) required 730 ± 50 nM. Moreover, on α7 nAChRs [2], the “residual response at TQS-α7 nAChRs” value is on record as roughly 15%.
As for `CC[C@H](C)[C@@H]1NC(=O)[C@H](Cc2c[nH]cn2)NC(=O)[C@@H]2CCCN2C(=O)[C@H](CC(N)=O)NC(=O)[C@H](CC(N)=O)NC(=O)[C@H]([C@@H](C)O)NC(=O)[C@H](CC(N)=O)NC(=O)[C@@H]2CSSC[C@H](NC(=O)CN)C(=O)N[C@@H](CSSC[C@@H](C(=O)NCC(N)=O)NC1=O)C(=O)N[C@@H](CO)C(=O)N[C@@H](Cc1c[nH]cn1)C(=O)N1CCC[C@H]1C(=O)N[C@@H](C)C(=O)N2` [[V10T]OmIA] (H-GCCSHPACNTNNPHICG-NH2; disulfide 2-8, 3-16), the “residual response at PNU120596-α7 nAChRs” value at α7 nAChRs [1] came out at 60%. Further, the midpoint of inhibition at Ls-AChBP, the IC50, lay at 1000 ± 50 nM.
`CC[C@H](C)[C@@H]1NC(=O)[C@H](Cc2c[nH]cn2)NC(=O)[C@@H]2CCCN2C(=O)[C@H](CC(N)=O)NC(=O)[C@H](CC(N)=O)NC(=O)[C@H](C(C)C)NC(=O)[C@H](CC(N)=O)NC(=O)[C@@H]2CSSC[C@H](NC(=O)CN)C(=O)N[C@@H](CSSC[C@@H](C(=O)NCC(N)=O)NC1=O)C(=O)N[C@@H](CO)C(=O)N[C@@H](Cc1c[nH]cn1)C(=O)N1CCC[C@H]1C(=O)N[C@@H](C)C(=O)N2` [OmIA] (H-GCCSHPACNVNNPHICG-NH2; disulfide 2-8, 3-16): on α7 nAChRs [1], the “extent of inhibition of α7 nAChR responses to choline” value is given as roughly 50%. For the same compound, the “residual response at TQS-α7 nAChRs” value at α7 nAChRs [2] is reported as roughly 15%.
Regarding `CC[C@H](C)[C@@H]1NC(=O)[C@H](Cc2c[nH]cn2)NC(=O)[C@@H]2CCCN2C(=O)[C@H](CC(N)=O)NC(=O)[C@H](CC(N)=O)NC(=O)[C@H](C)NC(=O)[C@H](CC(N)=O)NC(=O)[C@@H]2CSSC[C@H](NC(=O)CN)C(=O)N[C@@H](CSSC[C@@H](C(=O)NCC(N)=O)NC1=O)C(=O)N[C@@H](CO)C(=O)N[C@@H](Cc1c[nH]cn1)C(=O)N1CCC[C@H]1C(=O)N[C@@H](C)C(=O)N2` [[V10A]OmIA] (H-GCCSHPACNANNPHICG-NH2; disulfide 2-8, 3-16), at α7 nAChRs [1], the “Choline EC50 ± SEM at PNU120596-α7 nAChRs in the presence of peptide” value was 7 ± 1.20 and 8 ± 0.47 and 11 ± 1.20; the “mode of antagonism at PNU120596-α7 nAChRs” value is “fully insurmountable antagonism”. The “Fraction 2 ± SEM at PNU120596-modified α7 nAChRs” value at α7 nAChRs [1] (SEM) is 0.58 ± 0.04 and 0.57 ± 0.11 and 0.37 ± 0.04. For the same compound, the “Choline EC50 ± SEM at TQS-α7 nAChRs in the presence of peptide” value on α7 nAChRs [2] was 3 ± 0.20 and 4 ± 1.00 and 5 ± 0.48.
Consider `CC[C@H](C)[C@@H]1NC(=O)[C@H](Cc2c[nH]cn2)NC(=O)[C@@H]2CCCN2C(=O)[C@H](CC(N)=O)NC(=O)[C@H](CC(N)=O)NC(=O)[C@H](CC(C)C)NC(=O)[C@H](CC(N)=O)NC(=O)[C@@H]2CSSC[C@H](NC(=O)CN)C(=O)N[C@@H](CSSC[C@@H](C(=O)NCC(N)=O)NC1=O)C(=O)N[C@@H](CO)C(=O)N[C@@H](Cc1c[nH]cn1)C(=O)N1CCC[C@H]1C(=O)N[C@@H](C)C(=O)N2` [[V10L]OmIA] (H-GCCSHPACNLNNPHICG-NH2; disulfide 2-8, 3-16), for which the IC50 – broadly, the point on the concentration scale where inhibition reaches its midpoint – against Ls-AChBP was found to be 680 ± 130 nM. For the same compound, the “increase of OmIA IC50 at TQS-α7 nAChRs” value on α7 nAChRs [2] is 10 fold.
For `CC[C@H](C)[C@@H]1NC(=O)[C@H](Cc2cnc[nH]2)NC(=O)[C@@H]2CCCN2C(=O)[C@H](CC(N)=O)NC(=O)[C@H](CC(N)=O)NC(=O)[C@H](C(C)C)NC(=O)[C@H](CC(N)=O)NC(=O)[C@@H]2CSSC[C@H](NC(=O)CN)C(=O)N[C@@H](CSSC[C@@H](C(=O)NCC(N)=O)NC1=O)C(=O)N[C@@H](CO)C(=O)N[C@@H](Cc1cnc[nH]1)C(=O)N1CCC[C@H]1C(=O)N[C@@H](C)C(=O)N2` [OmIA] (H-GCCSHPACNVNNPHICG-NH2; disulfide 2-8, 3-16), the 50% inhibitory concentration (IC50) against Ls-AChBP came out at 280 ± 70 nM.
